From patent US20170362243A1, “BIARYLETHER IMIDAZOPYRAZINE BTK INHIBITORS” (MERCK SHARP & DOHME CORP., priority 2014, published 2017)
pIC50: −log10 of the molar value.

Target: T1, BTK enzyme (recombinant full-length BTK, hBTK) (Homo sapiens, UniProt Q06187)
T1 construct: recombinant protein from baculovirus-transfected Sf9 cells: full-length BTK, 6HIS-tag cleaved; 6HIS (cleaved yes); made in house; host or cells: baculovirus-transfected Sf9 cells
Experiment: Btk enzyme activity assay, LANCE TR-FRET
Format: biochemical
Settings: 50 pM hBTK, 2 μM biotin-A5-peptide, 25 μM ATP, 60 minute compound & enzyme incubation, read-out: BTK binding IC50
Procedure: BTK enzymatic activity was determined with the LANCE (Lanthanide Chelate Excite) TR-FRET (Time-resolved fluorescence resonance energy transfer) assay. In this assay, the potency (IC50) of each compound was determined from an eleven point (1:3 serial dilution; final compound concentration range in assay from 1 μM to 0.017 nM) titration curve using the following outlined procedure. To each well of a black non-binding surface Corning 384-well microplate (Corning Catalog #3820), 5 nL of compound (2000 fold dilution in final assay volume of 10 μL) was dispensed, followed by the addition of 7.5 μL of 1× kinase buffer (50 mM Hepes 7.5, 10 mM MgCl2, 0.01% Brij-35, 1 mM EGTA, 0.05% BSA & 1 mM DTT) containing 5.09 pg/μL (66.67 pM) of BTK enzyme (recombinant protein from baculovirus-transfected Sf9 cells: full-length BTK, 6HIS-tag cleaved). Following a 60 minute compound & enzyme incubation, each reaction was initiated by the addition of 2.5 μL 1× kinase buffer containing 8 μM biotinylated “A5” peptide (Biotin-EQEDEPEGDYFEWLE-NH2) (SEQ.ID.NO.: 1), and 100 μM ATP. The final reaction in each well of 10 μL consists of 50 pM hBTK, 2 μM biotin-A5-peptide, and 25 μM ATP. Phosphorylation reactions were allowed to proceed for 120 minutes. Reactions were immediately quenched by the addition of 20 uL of 1× quench buffer (15 mM EDTA, 25 mM Hepes 7.3, and 0.1% Triton X-100) containing detection reagents (0.626 nM of LANCE-Eu-W1024-anti-phosphoTyrosine antibody, PerkinElmer and 86.8 nM of Streptavidin-conjugated Dylight 650, Dyomics/ThermoFisher Scientific). After 60 minutes incubation with detection reagents, reaction plates were read on a PerkinElmer EnVision plate reader using standard TR-FRET protocol. Briefly, excitation of donor molecules (Eu-chelate:anti-phospho-antibody) with a laser light source at 337 nm produces energy that can be transferred to Dylight-650 acceptor molecules if this donor:acceptor pair is within close proximity. Fluorescence intensity at both 665 nm (acceptor) and 615 nm (donor) are measured and a TR-FRET ratio calculated for each well (acceptor intensity/donor intensity). IC50 values were determined by 4 parameter robust fit of TR-FRET ratio values vs. (Log10) compound concentrations.
The following Table 3 provides specific IC50 values for all the examples. The IC50 values set forth below were determined according to Assay method described above.

T1 sequence (Q06187 whole entry): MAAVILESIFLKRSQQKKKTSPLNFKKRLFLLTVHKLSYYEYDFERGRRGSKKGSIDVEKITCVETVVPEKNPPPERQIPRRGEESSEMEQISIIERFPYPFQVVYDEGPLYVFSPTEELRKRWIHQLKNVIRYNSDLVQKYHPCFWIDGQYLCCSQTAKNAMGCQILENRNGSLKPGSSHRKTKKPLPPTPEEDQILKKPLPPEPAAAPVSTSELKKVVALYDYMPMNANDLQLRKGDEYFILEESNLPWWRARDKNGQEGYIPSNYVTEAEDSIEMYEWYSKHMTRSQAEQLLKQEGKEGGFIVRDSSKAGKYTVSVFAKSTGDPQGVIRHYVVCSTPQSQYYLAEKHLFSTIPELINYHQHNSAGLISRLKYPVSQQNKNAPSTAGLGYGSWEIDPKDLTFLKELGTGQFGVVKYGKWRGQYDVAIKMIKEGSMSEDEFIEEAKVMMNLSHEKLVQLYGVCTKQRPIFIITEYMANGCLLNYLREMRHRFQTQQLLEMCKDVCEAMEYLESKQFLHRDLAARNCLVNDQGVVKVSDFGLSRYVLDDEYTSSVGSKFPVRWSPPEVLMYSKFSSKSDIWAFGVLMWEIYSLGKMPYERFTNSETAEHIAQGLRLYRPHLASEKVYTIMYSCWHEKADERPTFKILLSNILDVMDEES

SMILES | pIC50
Nc1nccn2c(C34CCC(C(=O)O)(CC3)CC4)nc(-c3ccc(Oc4ccccc4)cc3)c12 [Example 6, 4-[8-amino-1-(4-phenoxyphenyl)imidazo[1,5-a]pyrazin-3-yl]bicyclo[2.2.2]octane-1-carboxylic acid] | 10.05
Nc1nccn2c1c(-c1ccc(Oc3ccccc3)cc1)nc2[C@H]1CC[C@H](C(=O)O)CC1 [Example 17, trans-4-[8-amino-1-(4-phenoxyphenyl)imidazo [1,5-a]pyrazin-3-yl]cyclohexane-carboxylic acid] | 9.30
C[C@]1(C(=O)O)CCC[C@@H](c2nc(-c3ccc(Oc4ccccc4)cc3)c3c(N)nccn23)C1 [Example 14, (1S,3R)-3-[8-amino-1-(4-phenoxyphenyl)imidazo [1,5-a]pyrazin-3-yl]-1-methylcyclohexane-carboxylic acid] | 8.62
Nc1nccn2c(C34C=CC(C(=O)O)(CC3)CC4)nc(-c3ccc(Oc4ccccc4)cc3)c12 [Example 22, 4-[8-amino-1-(4-phenoxyphenyl)imidazo[1,5-a]pyrazin-3-yl]bicyclo[2.2.2]oct-2-ene-1-carboxylic acid] | 9.59
CCC[C@]1(C(=O)O)CCC[C@@H](c2nc(-c3ccc(Oc4ccccc4)cc3)c3c(N)nccn23)C1 [Example 19, (1S,3R)-3-[8-amino-1-(4-pheenoxyphenyl)imidazo[1,5-a]pyrazin-3-yl]-1-propylcyclohexane-carboxylic acid] | 6.70
CC1(C(=O)O)CCCC(c2nc(-c3ccc(Oc4ccccc4)cc3)c3c(N)nccn23)C1 (stereo not shown) [Example 10, 3-[8-amino-1-(4-phenoxyphenyl)imidazo [1,5-a]pyrazin-3-yl]-1-mehtylcyclohexane-carboxylic acid] | 8.80
Nc1nccn2c1c(-c1ccc(Oc3cccc(F)c3)cc1)nc2[C@H]1CC[C@H](C(=O)O)CC1 [Example 12, trans-4-{8-amino-1-[4-(3-fluorophenoxy)phenyl]imidazo[1,5-a]pyrazin-3-yl}cyclohexanecarboxylic acid] | 9.00
Nc1nccn2c(C34C5C6C3C3C4C5C63C(=O)O)nc(-c3ccc(Oc4ccccc4)cc3)c12 (stereo not shown) [Example 23, 4-(8-amino-1-(4-phenoxyphenyl)imidazo[1,5-a]pyrazin-3-yl)cubane-1-carboxylic acid] | 9.52
Nc1nccn2c(C3CCC(C(=O)O)O3)nc(-c3ccc(Oc4ccccc4)cc3)c12 (single isomer, unassigned) [Example 26, 5-[8-amino-1-(4-phenoxyphenyl)imidazo[1,5-a]pyrazin-3-yl]tetrahydrofuran-2-carboxylic acid (E1)] | 7.90
CC(C)[C@]1(C(=O)O)CC[C@@H](c2nc(-c3ccc(Oc4cccc(F)c4)cc3)c3c(N)nccn23)C1 [Example 2, (1S,3R)-3-{8-amino-1-[4-(3-fluorophenoxy)phenyl]imidazo[1,5-a]pyrazin-3-yl}-1-(1-methylethyl)cyclo-pentanecarboxylic acid] | 8.70
CC(C)C1(C(=O)O)CC[C@H](c2nc(-c3ccc(Oc4cccc(F)c4)cc3)c3c(N)nccn23)C1 (stereo in doubt) [Example 5, (1R,3S)-3-{8-amino-1-[4-(3-fluorophenoxy)phenyl]imidazo[1,5-a]pyrazin-3-yl}-1-(1-methylethyl)cyclo-pentanecarboxylic acid] | 8.85
C[C@@]1(C(=O)O)CCC[C@H](c2nc(-c3ccc(Oc4cccc(F)c4)cc3)c3c(N)nccn23)C1 [Example 16, (1R,3S)-3-{8-amino-1-[4-(3-fluorophenoxy)phenyl]imidazo[1,5-a]pyrazin-3-yl}-1-methylcyclohexane-carboxylic acid] | 8.48
CC1(C)[C@@H](c2nc(-c3ccc(Oc4ccccc4)cc3)c3c(N)nccn23)CC[C@@]1(C)C(=O)O [Example 8, (1R,3S)-3-[8-amino-1-(4-phenoxyphenyl)imidazo [1,5-a]pyrazin-3-yl]-1,2,2-trimethylcyclopenta-carboxylic acid] | 9.15
